Measured values: patent US9216157B2, “Chewing gum in the form of multi-layer tablets” (Jagotec AG, priority 2003, dated 2015)
Values belong to the compound of their own block, whether it stands above or below them.

Assays:
[1] = Dissolution test according to the American Pharmacopoeia (paddle, 100 rpm, 1000 mL water, 37°); assay type: physicochemical
Method: The tablets were then subjected to the dissolution test according to the American Pharmacopoeia method, using 1000 mL of water at 37° as dissolving fluid and a paddle at 100 rpm. The test was performed by the spectrophotometry method, operating at 280 nm.

[2] = Evaluation of release of active component in vivo (chewing by volunteers, residue analysed); set-up: species or system human; conditions: for Caffeine released in vivo (average): average of 3 volunteers
Method: To establish the release of active component from the chewing gum, the tablets were tested by a panel of 3 volunteers. For each test, the volunteer was asked to chew one piece of gum for a set time. After that time the gum was ground, and the active component content analysed. The in vivo tests were conducted with the following chewing times: 5, 10, 15, 20, 30 and 40 minutes. The gum residue was weighed, frozen and finely ground. An exactly weighed amount of this powder was then subjected to the dissolution test according to the American Pharmacopoeia, using 1000 mL of water at 37° as dissolving fluid, and a paddle at 100 rpm. The test was performed by the spectrophotometry method, operating at 273 nm. The amount of active component released in vivo was determined by subtracting the amount of caffeine in the residue from the amount present in the pharmaceutical form.

[3] = Example 5 four-layer tablets (50 mg levodopa, 12.5 mg carbidopa), time 0 min
[4] = Example 5 four-layer tablets, time 5 min
[5] = Example 5 four-layer tablets, time 15 min
[6] = Example 5 four-layer tablets, time 20 min
[7] = Example 5 four-layer tablets, time 25 min
[8] = Example 5 four-layer tablets, time 30 min
[9] = Example 5 four-layer tablets, time 35 min
[10] = Example 5 four-layer tablets, time 40 min
[11] = Example 3 tablet, chewing time 5 minutes
[12] = Example 3 tablet, chewing time 10 minutes
[13] = Example 3 tablet, chewing time 15 minutes
[14] = Example 3 tablet, chewing time 20 minutes
[15] = Example 3 tablet, chewing time 30 minutes
[16] = Example 3 tablet, chewing time 40 minutes

percentage released by the tablets [1, 3]: 0.00% | percentage released by the tablets [1, 4]: 78.23% | percentage released by the tablets [1, 5]: 92.63% | percentage released by the tablets [1, 6]: 94.97% | percentage released by the tablets [1, 7]: 96.55% | percentage released by the tablets [1, 8]: 98.18% | percentage released by the tablets [1, 9]: 98.77% | percentage released by the tablets [1, 10]: 100.00%
SMILES: C[C@@](Cc1ccc(O)c(O)c1)(NN)C(=O)O [carbidopa, Carbidopa]

percentage released by the tablets [1, 3]: 0.00% | percentage released by the tablets [1, 4]: 63.52% | percentage released by the tablets [1, 5]: 90.00% | percentage released by the tablets [1, 6]: 92.47% | percentage released by the tablets [1, 7]: 94.04% | percentage released by the tablets [1, 8]: 94.90% | percentage released by the tablets [1, 9]: 95.66% | percentage released by the tablets [1, 10]: 96.28%
SMILES: N[C@@H](Cc1ccc(O)c(O)c1)C(=O)O [levodopa, Levodopa]

SMILES: Cn1c(=O)c2c(ncn2C)n(C)c1=O [Caffeine]
Caffeine released in vivo, Volunteer 2 [2, 11]: 77.02% | Caffeine released in vivo, Volunteer 3 [2, 11]: 75.07% | Caffeine released in vivo (average) [2, 11]: 74.54% | Caffeine released in vivo, Volunteer 1 [2, 12]: 86.03% | Caffeine released in vivo, Volunteer 2 [2, 12]: 83.66% | Caffeine released in vivo, Volunteer 3 [2, 12]: 84.94% | Caffeine released in vivo (average) [2, 12]: 84.88% | Caffeine released in vivo, Volunteer 1 [2, 13]: 90.18% | Caffeine released in vivo, Volunteer 2 [2, 13]: 90.97% | Caffeine released in vivo, Volunteer 3 [2, 13]: 91.07% | Caffeine released in vivo (average) [2, 13]: 90.74% | Caffeine released in vivo, Volunteer 1 [2, 14]: 89.45% | Caffeine released in vivo, Volunteer 2 [2, 14]: 91.58% | Caffeine released in vivo, Volunteer 3 [2, 14]: 89.61% | Caffeine released in vivo (average) [2, 14]: 90.21% | Caffeine released in vivo, Volunteer 1 [2, 15]: 93.92% | Caffeine released in vivo, Volunteer 2 [2, 15]: 92.25% | Caffeine released in vivo, Volunteer 3 [2, 15]: 92.49% | Caffeine released in vivo (average) [2, 15]: 92.89% | Caffeine released in vivo, Volunteer 1 [2, 16]: 92.79% | Caffeine released in vivo, Volunteer 2 [2, 16]: 93.34% | Caffeine released in vivo, Volunteer 3 [2, 16]: 92.34% | Caffeine released in vivo (average) [2, 16]: 92.82% | Caffeine released in vivo, Volunteer 1 ([2]; Example 3 three-layer chewing gum tablet, 10 mg caffeine, chewing time 5 minutes): 71.52%
